In PMC12717099, “Peptidoglycan recruitment by a penicillin binding protein” (Nature Communications, 2025):
Like-named read-outs stand apart in the source and are kept apart here.

Columns and labels:
PBP5 = test: Bocillin FL fluorescence polarization binding competition assay; set-up: species or system Enterococcus faecium; settings: antibiotic fixed 60 μM, PBP5 3.6 µM, Bocillin FL 30 nM, 37 °C, n = 3
Description: The assays were performed in low-volume 384-well black polystyrene assay plate (Corning, 4511), using assay buffer (100 mM Na-phosphate pH 7.0, 0.01% Triton X-100) to prevent the adsorption of Bocillin FL (Invitrogen, B13233) to the plate. Bocillin FL was dissolved in DMSO and stored as a 1 mM stock in the −20 °C freezer. Fresh working stock of Bocillin FL was made each day for the assays by diluting the stock with the assay buffer for a final concentration of 30 nM. The final concentration of PBP5 for the assays was 3.6 µM. The antibiotic, either penicillin G, ceftaroline or ceftriaxone, was added to PBP5 before the reactions were initiated by the addition of Bocillin FL. The plate was sealed with ThermalSeal RT silicone adhesive film (EXCEL Scientific, TSS-RTQ-100) to prevent evaporation during the measurements. Reaction without PBP5 (Bocillin FL only) was used as negative control. All reactions were carried out at 37 °C in a CLARIOStar plate reader (BMG Labtech) equipped with the 482 nm excitation filter, 530 nm emission filter and a dichroic filter LP504. The focal height was adjusted to 11.3 mm and the gain was set to 10 mP using the negative control. Measurements were made at 40 s intervals for up to 75 min with 100 flashes per measurement. Three replicates were made for each treatment in each run, and the experiment was repeated 3 times.

[1] = tested on: E. faecium D344SRF pCWR624 (PBP5 plasmid); test: MIC by broth microdilution, pCWR624; format: cell-based, Enterococcus faecium; settings: strain pCWR624; 37 °C, 20 h; n=3
Description: The synthetic genes were purchased from GeneWiz (South Plainfield, NJ). The ribosome binding site sequence AGGAGG (Shine-Dalgarno), and a string of five A’s followed by the sequence […], that corresponds to the first 15 bp found in pbp5 from E. faecium C68 were added upstream of the START codon. The terminator sequence […] was added downstream of the STOP codon. BamHI restriction sites were added to the flanking 5′ and 3′ ends. The synthetic genes were inserted into the vector pCWR624Δpbp5. This vector was derived from pCWR624[10], in which the pbp5 gene from D366 was excised by digestion with BamHI followed by re-ligation of the vector, allowing subsequent insertion of modified synthetic pbp5s into the BamHI site downstream of ftsWEfm and psr from E. faecium C68[10]. The synthetic genes were inserted in a BamHI site located downstream of psr. The proper orientation was confirmed by PCR amplification using the forward primer OR_pbp5_FOR_1 (5′-[…]-3′) and the reverse primer OR_pbp5_REV_1 (5′-[…]-3′). Plasmids were sequence verified for the specific binding site mutations. The resulting constructions were electroporated into the natural pbp5(-) mutant E. faecium D344SRF with a selection on brain heart infusion agar (BHI) plates containing kanamycin (1500 µg/ml).
E. faecium strains were streaked fresh from −80 °C stored glycerol stocks onto brain heart infusion (BHI) agar plates and incubated for 18 h at 37 °C. Strains harboring the plasmid derivatives were grown under antibiotic pressure on agar plates containing kanamycin at 1500 µg/ml. A single colony was inoculated into BHI or BHI-kanamycin (1500 µg/ml) for overnight cultures (18 h).
MIC determination was performed using a standard broth microdilution technique in duplicate from independent cultures. Overnight cultures were inoculated into 3 ml of BHI or BHI-kanamycin (1500 µg/ml) broth in a dilution of 1:100 and incubated until an OD600 of ~0.5 was reached. Cultures were diluted 1:1000 and inoculated into the 96-well plates with the corresponding antibiotics to be tested. Plates were incubated at 37 °C for 20 h and read by eye. […]

PBP4 = settings: for STD amplification factor, 2000: protein:peptide 1:100, 2 s saturation
Description: STD NMR experiments were carried out on 0.02 mM unlabeled PBP5T485, PBP4, and PBP2B in NMR buffer (10 mM MES pH 5.8, 25 mM NaCl) at 308 K with the peptides (SP1, SP2, SP4, SP5 and SP6 with PBP5, SP2 also with PBP4 and PBP2B) at 1:100 PBP5:peptide molar ratios using a pseudo 2D pulse sequence that leverages a shaped pulse train for saturation and selected water suppression by excitation sculpting with gradients. All STD experiments were performed at 800 MHz for best resolution and least signal overlap. Total saturation time for STD measurements was 2 s. A 2 s recycling delay, and 64 scans were used for all STD experiments. Selective protein saturation was achieved by setting the on-resonance frequency on PBP5 methyl peaks at 0.73 ppm. For the off-resonance (reference) spectrum, the irradiation frequency was shifted to −40 ppm. […] LTotal/PTotal is the ligand excess relative to a constant protein concentration.
For a uniform analysis, we normalized the STD amplification factor by using the highest STD amplification factor in the SP1:PBP5 analysis and using the same STD amplification factor to normalize other SPs (SP2-6) to allow for a rigorous comparison. For the analysis of the STD NMR data only data from non-exchangeable protons (CH groups) were utilized. Overlapped peaks were completely excluded from the analysis.

CO/N=C(\C(=O)N[C@@H]1C(=O)N2C(C(=O)O)=C(CSc3nc(=O)c(=O)[nH]n3C)CS[C@H]12)c1csc(N)n1 [Ceftriaxone, ceftriaxone]
binding/inhibition of PBP5, in words (PBP5): does not bind/inhibit PBP5 | binding/inhibition of PBP5, in words (PBP5; listed as ceftriaxone): does not bind | MIC (µg/ml) [Range] [1]: > 3200 [3200->3200] µg/ml

D-Lac-L-Ala-D-iGln-L-Lys(D-iAsn) [SP2]
STD % to SP1 (PBP4; 1H DLacβ): 28.7108% | STD amplification factor as fraction of highest SP1:PBP5 value (PBP4; 1H DLacβ): 0.2871 | STD amplification factor, 2000 (PBP4; 1H DLacβ): 7.726 | STD % to SP1 (PBP4; 1H DQ2β (first listed)): 57.5161% | STD amplification factor as fraction of highest SP1:PBP5 value (PBP4; 1H DQ2β (first listed)): 0.5752 | STD amplification factor, 2000 (PBP4; 1H DQ2β (first listed)): 15.4766 | STD % to SP1 (PBP4; 1H DQ2β (second listed)): 62.3639% | STD amplification factor as fraction of highest SP1:PBP5 value (PBP4; 1H DQ2β (second listed)): 0.6236 | STD amplification factor, 2000 (PBP4; 1H DQ2β (second listed)): 16.7811 | STD % to SP1 (PBP4; 1H DQ2γ): 18.9556% | STD amplification factor as fraction of highest SP1:PBP5 value (PBP4; 1H DQ2γ): 0.1896 | STD amplification factor, 2000 (PBP4; 1H DQ2γ): 5.101 | STD % to SP1 (PBP4; 1H K3α): 41.8044% | STD amplification factor as fraction of highest SP1:PBP5 value (PBP4; 1H K3α): 0.418 | STD amplification factor, 2000 (PBP4; 1H K3α): 11.2489 | STD % to SP1 (PBP4; 1H K3β): 89.5852% | STD amplification factor as fraction of highest SP1:PBP5 value (PBP4; 1H K3β): 0.8959 | STD amplification factor, 2000 (PBP4; 1H K3β): 24.1059 | STD % to SP1 (PBP4; 1H K3γ): 46.145% | STD amplification factor as fraction of highest SP1:PBP5 value (PBP4; 1H K3γ): 0.4615 | STD amplification factor, 2000 (PBP4; 1H K3γ): 12.4169 | STD % to SP1 (PBP4; 1H K3δ): 58.6188% | STD amplification factor as fraction of highest SP1:PBP5 value (PBP4; 1H K3δ): 0.5862 | STD amplification factor, 2000 (PBP4; 1H K3δ): 15.7734 | STD % to SP1 (PBP4; 1H K3ε): 16.4854% | STD amplification factor as fraction of highest SP1:PBP5 value (PBP4; 1H K3ε): 0.1649 | STD amplification factor, 2000 (PBP4; 1H K3ε): 4.436 | STD % to SP1 (PBP4; 1H LA1α): 41.4108% | STD amplification factor as fraction of highest SP1:PBP5 value (PBP4; 1H LA1α): 0.4141 | STD amplification factor, 2000 (PBP4; 1H LA1α): 11.143 | STD % to SP1 (PBP4; 1H LA1β): 30.5144% | STD amplification factor as fraction of highest SP1:PBP5 value (PBP4; 1H LA1β): 0.3051 | STD amplification factor, 2000 (PBP4; 1H LA1β): 8.211 | STD % to SP1 (PBP4; 1H iNα,DQ2α): 21.1266% | STD amplification factor as fraction of highest SP1:PBP5 value (PBP4; 1H iNα,DQ2α): 0.2113 | STD amplification factor, 2000 (PBP4; 1H iNα,DQ2α): 5.685 | STD % to SP1 (PBP4; 1H iNβ): 26.2423% | STD amplification factor as fraction of highest SP1:PBP5 value (PBP4; 1H iNβ): 0.2624 | STD amplification factor, 2000 (PBP4; 1H iNβ): 7.061
